Test results reported in ChEMBL document CHEMBL5042519, “Design and synthesis of marine sesterterpene analogues as novel estrogen receptor α degraders for breast cancer treatment” (Eur J Med Chem, 2022).
Active and inactive are the calls of the source. The rule behind the calls is not given here.

Legend:
[1] = tested on: MCF7; assay: Induction of apoptosis in human MCF7 cells assessed as decrease in Bcl2 protein level at 0.5 to 3 uM and measured after 24 hrs Western blot analysis relative to control; format: functional, cell-based; details: dose 0.5-3 µM
[2] = tested on: MCF7; assay: Cell cycle arrest in human MCF7 cells assessed as accumulation at G1 phase at 2 uM measured after 24 hrs by propidium iodide staining based flow cytometry (reference value: 73.45 %); format: functional
[3] = molecular target: T1, Estrogen receptor (Homo sapiens) (UniProt P03372); assay: Induction of ERalpha degradation in human MCF7 cells assessed as ERalpha level at 3 uM measured after 24 hrs in presence of chloroquine by Western blot analysis; format: cell-based
T1 sequence (whole entry): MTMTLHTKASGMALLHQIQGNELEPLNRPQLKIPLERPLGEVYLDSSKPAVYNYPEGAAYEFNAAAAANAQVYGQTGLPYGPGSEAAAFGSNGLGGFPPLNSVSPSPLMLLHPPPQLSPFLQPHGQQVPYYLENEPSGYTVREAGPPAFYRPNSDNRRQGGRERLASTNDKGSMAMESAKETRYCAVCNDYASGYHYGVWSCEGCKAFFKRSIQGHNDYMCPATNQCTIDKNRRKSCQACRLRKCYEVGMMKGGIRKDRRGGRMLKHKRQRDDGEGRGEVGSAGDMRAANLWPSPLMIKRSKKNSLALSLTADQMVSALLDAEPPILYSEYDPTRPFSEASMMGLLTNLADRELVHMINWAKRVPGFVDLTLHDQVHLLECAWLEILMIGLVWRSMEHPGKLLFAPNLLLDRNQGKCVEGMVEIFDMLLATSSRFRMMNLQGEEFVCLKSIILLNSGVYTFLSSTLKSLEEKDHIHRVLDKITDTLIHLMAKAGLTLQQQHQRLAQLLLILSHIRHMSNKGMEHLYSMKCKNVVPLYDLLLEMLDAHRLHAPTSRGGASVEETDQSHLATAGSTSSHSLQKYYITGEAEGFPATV

[4] = Metabolic stability in rat liver microsomes assessed as assessed as intrinsic clearance incubated for 60 mins in presence of NADPH by UPLC-MS analysis; format: ADME, Microsome; details: read-out: CLH
[5] = tested on: MCF7; assay: Induction of apoptosis in human MCF7 cells assessed as increase in cleaved caspase 9 level at 0.5 to 3 uM and measured after 24 hrs Western blot analysis relative to control; format: functional, cell-based; details: dose 0.5-3 µM
[6] = tested on: MCF7; assay: Induction of apoptosis in human MCF7 cells assessed as early apoptotic cells at 0.5 uM incubated for 24 hrs by annexin-V and PI staining based flow cytometry analysis relative to control; format: functional
[7] = Selectivity index, ratio of IC50 for antiproliferative activity against human MCF-10A cells to IC50 for antiproliferative activity against human MDA-MB-231 cells by MTT assay; format: toxicity, cell-based; details: MCF-10A cells versus MDA-MB-231 cells, read-out: Ratio IC50
[8] = tested on: MCF7; assay: Cell cycle arrest in human MCF7 cells assessed as reduction in cyclin D1 expression at 0.5 to 3 uM and measured after 24 hrs by Western blot analysis; format: functional, cell-based; details: dose 0.5-3 µM
[9] = tested on: MCF7; assay: Induction of ROS generation in human MCF7 cells assessed as increase in intracellular ROS level measured after 24 hrs preincubated with NAC by DCFH-DA staining based flow cytometry method; format: functional, cell-based
[10] = tested on: MCF7; assay: Antiproliferative activity against human MCF7 cells assessed as reduction in cell viability after 48 hrs by MTT assay; format: functional, cell-based; details: MCF7, 48 h
[11] = tested on: MCF7; assay: Cell cycle arrest in human MCF7 cells assessed as accumulation at G1 phase at 0.5 uM measured after 24 hrs by propidium iodide staining based flow cytometry (reference value: 73.45 %); format: functional
[12] = tested on: MCF7; assay: Inhibition of colony formation in human MCF7 cells at 0.5 to 2 uM measured after 9 days by crystal violet staining based assay; format: functional, cell-based; details: dose 0.5-2 µM, time 9.0 day
[13] = tested on: MCF7; assay: Induction of apoptosis in human MCF7 cells assessed as increase in cleaved caspase 3 level at 0.5 to 3 uM and measured after 24 hrs Western blot analysis relative to control; format: functional, cell-based; details: dose 0.5-3 µM
[14] = molecular target: T2, Progesterone receptor (Homo sapiens) (UniProt P06401); assay: Induction of progesterone receptor degradation in human MCF7 cells assessed as decrease in PR level at 1 uM incubated for 24 hrs by Western blot analysis; format: cell-based
T2 sequence (whole entry): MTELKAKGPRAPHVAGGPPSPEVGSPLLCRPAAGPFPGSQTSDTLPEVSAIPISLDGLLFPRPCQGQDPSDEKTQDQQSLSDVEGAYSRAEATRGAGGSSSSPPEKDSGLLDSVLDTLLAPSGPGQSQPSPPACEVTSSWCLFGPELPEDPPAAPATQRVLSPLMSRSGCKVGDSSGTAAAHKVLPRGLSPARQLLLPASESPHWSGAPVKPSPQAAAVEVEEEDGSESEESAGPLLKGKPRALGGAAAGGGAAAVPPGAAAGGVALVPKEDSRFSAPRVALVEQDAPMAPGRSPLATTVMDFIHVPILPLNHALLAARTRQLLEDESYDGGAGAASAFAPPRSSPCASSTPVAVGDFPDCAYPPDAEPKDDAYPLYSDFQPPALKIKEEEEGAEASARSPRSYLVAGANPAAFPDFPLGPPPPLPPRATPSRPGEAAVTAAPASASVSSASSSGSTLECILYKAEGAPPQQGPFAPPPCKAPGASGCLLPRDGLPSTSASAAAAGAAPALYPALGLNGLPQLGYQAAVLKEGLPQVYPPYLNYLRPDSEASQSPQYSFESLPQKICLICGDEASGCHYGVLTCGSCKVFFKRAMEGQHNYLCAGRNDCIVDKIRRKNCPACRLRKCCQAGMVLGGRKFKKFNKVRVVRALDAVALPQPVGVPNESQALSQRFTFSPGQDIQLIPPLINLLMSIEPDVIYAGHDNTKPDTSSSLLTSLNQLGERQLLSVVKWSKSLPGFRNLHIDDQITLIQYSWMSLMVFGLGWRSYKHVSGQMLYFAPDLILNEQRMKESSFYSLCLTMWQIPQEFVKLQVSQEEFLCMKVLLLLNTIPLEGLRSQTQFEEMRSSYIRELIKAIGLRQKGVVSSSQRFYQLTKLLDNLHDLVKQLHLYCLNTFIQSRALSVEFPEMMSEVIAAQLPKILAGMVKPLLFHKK

[15] = tested on: MCF7; assay: Cell cycle arrest in human MCF7 cells assessed as reduction in CDK4 expression at 0.5 to 3 uM and measured after 24 hrs by Western blot analysis; format: functional, cell-based; details: dose 0.5-3 µM
[16] = tested on: MCF7; assay: Effect on cell morphology in human MCF7 cells assessed as chromatin shrinkage at 0.5 to 2 uM measured after 24 hrs by Hoechst 33342 staining based fluorescence microscopy; format: functional; details: dose 0.5-2 µM
[17] = tested on: MCF7; assay: Cell cycle arrest in human MCF7 cells assessed as decrease in G2/M phase accumulation at 0.5 to 2 uM and measured after 24 hrs by propidium iodide staining based flow cytometry relative to control; format: functional; details: dose 0.5-2 µM
[18] = tested on: MCF7; assay: Effect on cell morphology in human MCF7 cells assessed as appearance of apoptotic bodies at 0.5 to 2 uM measured after 24 hrs by Hoechst 33342 staining based fluorescence microscopy; format: functional; details: dose 0.5-2 µM
[19] = tested on: MCF7; assay: Induction of ROS generation in human MCF7 cells assessed as increase in intracellular ROS level at 0.5 to 2 uM and measured after 24 hrs by DCFH-DA staining based flow cytometry method; format: functional, cell-based; details: dose 0.5-2 µM

CC1=CC(=O)[C@H]2/C(C=O)=C\C[C@H]3[C@@H]([C@@H](C)/C=C\C=C/C(=O)OCCOCCOCCOC(=O)CC45CC6CC(CC(C6)C4)C5)CC[C@]3(C)C[C@H]12
Activity [1]: Active
Activity [2]: 87.85%
Activity [3]: Active
microsomal CLint [4]: 17.8 µL/min/mg
Activity [5]: Dose-Dependent Effect
Activity [6]: 6.9%
selectivity ratio [7]: 5.34
Activity [8]: Dose-Dependent Effect
Activity [9]: inactive
IC50 [10]: 410 nM
Activity [11]: 74.77%
inhibition [12]: Active
Activity [13]: Dose-Dependent Effect
Activity [14]: inactive
Activity [15]: Dose-Dependent Effect
Activity [16]: Active
Activity [17]: Active
Activity [18]: Active
Activity [19]: Dose-Dependent Effect
